Experiment [1] deals with T1, 3-keto-steroid reductase/17-beta-hydroxysteroid dehydrogenase 7 (Homo sapiens) (UniProt P56937).
T1 sequence (whole entry): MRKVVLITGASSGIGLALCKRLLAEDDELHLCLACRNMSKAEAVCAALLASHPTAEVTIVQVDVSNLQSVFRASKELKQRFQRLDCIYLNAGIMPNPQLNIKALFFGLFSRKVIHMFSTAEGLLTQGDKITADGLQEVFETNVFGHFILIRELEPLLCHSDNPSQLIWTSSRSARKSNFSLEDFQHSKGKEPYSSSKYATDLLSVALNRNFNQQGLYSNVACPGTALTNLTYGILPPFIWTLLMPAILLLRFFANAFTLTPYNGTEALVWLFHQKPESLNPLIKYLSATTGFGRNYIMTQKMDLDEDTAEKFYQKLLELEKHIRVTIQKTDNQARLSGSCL
The settings on record: HEK293, at 3 µM.
Description: Inhibition of human 17beta-HSD7 expressed in HEK293 cells assessed as inhibition of reduction of [14C]estrone into [14C]estradiol at 3 uM after 7 hrs

Experiment [2] addresses T1, 3-keto-steroid reductase/17-beta-hydroxysteroid dehydrogenase 7 (Homo sapiens). The settings on record: HEK293, at 0.3 µM.
Description: Inhibition of human 17beta-HSD7 expressed in HEK293 cells assessed as inhibition of reduction of [14C]estrone into [14C]estradiol at 0.3 uM after 7 hrs

Data on 38 molecules can be found in ChEMBL document CHEMBL1154295, “Potent and selective steroidal inhibitors of 17beta-hydroxysteroid dehydrogenase type 7, an enzyme that catalyzes the reduction of the key hormones estrone and dihydrotestosterone” (J Med Chem, 2009).

What is called inhibition is the change of the read-out against control, counted positive when it falls. A high value points to a strong effect.

As to `COc1cc2c(cc1S(N)(=O)=O)CC[C@@H]1[C@@H]2CC[C@]2(C)C(=O)CC[C@@H]12`, the inhibition in experiment [1] is 10.3%; in experiment [2], 6.4%.
For the molecule `COC(=O)c1cc2c(cc1O)CC[C@@H]1[C@@H]2CC[C@@]2(C)[C@H]1CC[C@@]21CCC(C)(C)C(=O)O1`, the inhibition is 30% in experiment [1] and 21.1% in experiment [2].
Take `CC1=C(c2ccc(OC(=O)C(C)(C)C)cc2)[C@H](c2ccc(OCCN3CCCCC3)cc2)Oc2cc(OC(=O)C(C)(C)C)ccc21`: the inhibition in experiment [1] and in experiment [2] was 0% each time.
Regarding `CC1(C)CC[C@@]2(CC[C@H]3[C@@H]4CCC5CC(=O)CC[C@]5(C)[C@H]4CC[C@@]32C)OC1=O` (stereo partly specified), the values for the inhibition in experiment [1] and in experiment [2] were 26.4% and 2.2%, respectively.
For `COCCOc1ccc2c(c1)CC[C@@H]1[C@@H]2CC[C@@]2(C)[C@H]1CC[C@@]21CCC(C)(C)C(=O)O1`, the inhibition was 52.3% in experiment [1] and 23.8% in experiment [2].
Turning to `CC1(C)CC[C@@]2(CC[C@H]3[C@@H]4CCc5cc(O)c(I)cc5[C@H]4CC[C@@]32C)OC1=O`, the inhibition is 24.9% in experiment [1] and 10% in experiment [2].
Take `CC1(C)CC[C@@]2(CC[C@H]3[C@@H]4CCc5cc(OS(=O)(=O)c6ccccc6)ccc5[C@H]4CC[C@@]32C)OC1=O`: the inhibition was 29.5% in experiment [1] and 11.7% in experiment [2].
`CCCNC(=O)N(C)[C@H]1CC[C@H]2[C@@H]3CC[C@H]4N(C)C(=O)CC[C@]4(C)[C@H]3CC[C@]12C`: the inhibition in experiment [1] is 2.2%; in experiment [2], 2.7%.
With `CN1C(=O)CC[C@]2(C)[C@H]3CC[C@]4(C)[C@@H](N(C=O)C5CC5)CC[C@H]4[C@@H]3CC[C@@H]12`, the values for the inhibition in experiment [1] and in experiment [2] were 41.2% and 17.6%, respectively.
Taken in the same sequence, the figures for `CCCCCNC(=O)[C@H]1CC[C@H]2[C@@H]3CC[C@H]4N(C)C(=O)CC[C@]4(C)[C@H]3CC[C@]12C` were 96.3% and 52.7%.
For `CCN(C(=O)c1ccccc1)[C@H]1CC[C@H]2[C@@H]3CC[C@H]4N(C)C(=O)CC[C@]4(C)[C@H]3CC[C@]12C`, the values for the inhibition in experiment [1] and in experiment [2] were 99.4% and 63.4%, respectively.
On to `C[C@]12CCC(=O)C=C1CC[C@@H]1[C@@H]2CC[C@@]2(C)[C@H]1CC[C@]2(O)C(=O)CO`, for which the values for the inhibition in experiment [1] and in experiment [2] were 0% and 9.8%, respectively.
Take `CN1C(=O)CC[C@]2(C)[C@H]3CC[C@]4(C)[C@@H](N5CCCC5=O)CC[C@H]4[C@@H]3CC[C@@H]12`: the figures for the inhibition in experiment [1] and in experiment [2] were 15.1% and 15.3%, respectively.
Take `CN1C(=O)CC[C@]2(C)[C@H]3CC[C@]4(C)[C@@H](N(C(=O)c5ccccc5)c5ccccc5)CC[C@H]4[C@@H]3CC[C@@H]12`: the inhibition in experiment [1] worked out at 64.1%; in experiment [2], 31.9%.
As for `CC1(C)CC[C@@]2(CC[C@H]3[C@@H]4CCc5cc(OP(=O)(O)O)ccc5[C@H]4CC[C@@]32C)OC1=O`, the inhibition in experiment [1] came to 16.5%; in experiment [2], 0%.
In the case of `CC1(C)CC[C@@]2(CC[C@H]3[C@@H]4CCc5c(cc(Cl)c(O)c5Cl)[C@H]4CC[C@@]32C)OC1=O`, the inhibition stood at 37% in experiment [1] and 20.2% in experiment [2].
Taken in the same sequence, the figures for `CC1=C(c2ccc(O)cc2)[C@H](c2ccc(OCCN3CCCCC3)cc2)Oc2cc(O)ccc21` were 4.2% and 3.1%.
Take `CCCNC(=O)N(C1CC1)[C@H]1CC[C@H]2[C@@H]3CC[C@H]4N(C)C(=O)CC[C@]4(C)[C@H]3CC[C@]12C`: the values for the inhibition in experiment [1] and in experiment [2] were 41.5% and 12.9%, respectively.
Take `CN1C(=O)CC[C@]2(C)[C@H]3CC[C@]4(C)[C@@H](N(C(=O)NC5CCCCC5)C5CC5)CC[C@H]4[C@@H]3CC[C@@H]12`: the results for the inhibition in experiment [1] and in experiment [2] were 54.7% and 8.4%, respectively.
As to `CCCCN(C)C(=O)C[C@@H]1Cc2cc(O)ccc2[C@H]2CC[C@@]3(C)[C@@H](CC[C@@]34CCC(=O)O4)[C@H]12`, the inhibition in experiment [1] turned out to be 15.5%; in experiment [2], 17.1%.
Regarding `CCC1(CC)CC[C@@]2(CC[C@H]3[C@@H]4CCc5cc(O)ccc5[C@H]4CC[C@@]32C)OC1=O`, the inhibition amounted to 39.6% in experiment [1] and 15.2% in experiment [2].
Turning to `CC(=O)C1CC[C@@]2(CC[C@H]3[C@@H]4CCc5cc(O)ccc5[C@H]4CC[C@@]32C)OC1=O` (stereo partly specified), the inhibition worked out at 14.8% in experiment [1] and 2.1% in experiment [2].
For `CC(=O)S[C@@H]1CC2=CC(=O)CC[C@]2(C)[C@H]2CC[C@@]3(C)[C@@H](CC[C@@]34CCC(=O)O4)[C@H]12`, the figures for the inhibition in experiment [1] and in experiment [2] were 7.5% and 7.2%, respectively.
Taken in the same sequence, the figures for `CN1C(=O)CC[C@]2(C)[C@H]3CC[C@@]4(C)[C@@H](CC[C@@]4(O)C#CC(C)(C)I)[C@@H]3CC[C@@H]12` were 72% and 20.2%.
The corresponding values for `C[C@]12CC[C@@]3(C[C@H]1CC[C@@H]1[C@@H]2CC[C@]2(C)C(=O)CC[C@@H]12)CN(CC(CN1CCOCC1)OC(=O)CCC1CCCC1)C(=O)O3` (stereo partly specified) are 8.7% and 18.9%.
Taken in the same sequence, the figures for `C[C@]12C[C@H](O)[C@H]3[C@@H](CCC4=CC(=O)CC[C@@]43C)[C@@H]1CC[C@@H]2C(=O)CO` were 14.9% and 8.1%.
In the case of `CCCCCCN(C=O)[C@H]1CC[C@H]2[C@@H]3CC[C@H]4N(C)C(=O)CC[C@]4(C)[C@H]3CC[C@]12C`, the inhibition in experiment [1] amounted to 100%; in experiment [2] it was 94.1%.
The corresponding values for `CC1(C)CC[C@@]2(CC[C@H]3[C@@H]4CCc5cc(C#N)ccc5[C@H]4CC[C@@]32C)OC1=O` are 34.6% and 23.8%.
As to `CC1(C)CC[C@@]2(CC[C@H]3[C@@H]4CCc5cc(C(=O)O)ccc5[C@H]4CC[C@@]32C)OC1=O`, the values for the inhibition in experiment [1] and in experiment [2] were 20.9% and 28.1%, respectively.
For `CN1C(=O)CC[C@]2(C)[C@H]3CC[C@]4(C)[C@@H](N(C=O)Cc5ccccc5)CC[C@H]4[C@@H]3CC[C@@H]12`, the values for the inhibition in experiment [1] and in experiment [2] were 77.6% and 31.6%, respectively.
The corresponding values for `COC(=O)c1ccc2c(c1)CC[C@@H]1[C@@H]2CC[C@@]2(C)[C@H]1CC[C@@]21CCC(C)(C)C(=O)O1` are 49% and 15.1%.
As for `C[C@]12CC[C@](O)(CCc3ccccc3)C[C@@H]1CC[C@@H]1[C@@H]2CC[C@]2(C)C(=O)CC[C@@H]12`, the inhibition in experiment [1] turned out to be 17.4%; in experiment [2], 0%.
The corresponding values for `C[C@]12CC[C@@H](O)C[C@@H]1CC[C@@H]1[C@@H]2CC[C@]2(C)[C@@H](O)CC[C@@H]12` are 8.4% and 1.1%.
For `CC(C)(C#N)c1cc(Cn2cncn2)cc(C(C)(C)C#N)c1`, the inhibition in experiment [1] turned out to be 0.3%; in experiment [2], 6.5%.
With `CC(C)(C)NC(=O)[C@H]1CC[C@H]2[C@@H]3CC[C@H]4NC(=O)C=C[C@]4(C)[C@H]3CC[C@]12C`, the inhibition in experiment [1] worked out at 5.4%; in experiment [2], 3.7%.
With `C[C@]12CC[C@@H]3c4ccc(O)cc4CC[C@H]3[C@@H]1C[C@@H](CCBr)[C@@H]2O`, the inhibition in experiment [1] turned out to be 4.5%; in experiment [2], 5.8%.
For the molecule `O=C(c1ccc(OCN2CCCCC2)cc1)c1c(-c2ccc(O)cc2)sc2cc(O)ccc12`, the inhibition in experiment [1] and in experiment [2] was 0% in each case.
With `COC(=O)[C@H]1CC[C@H]2[C@@H]3CC=C4C=C(Cl)CC[C@]4(C)[C@H]3CC[C@]12C`, the results for the inhibition in experiment [1] and in experiment [2] were 16.2% and 0.6%, respectively.
